Assay results published in US20240366712A1, “G[…] USE IN A METHOD OF PREVENTING OR TREATING INFECTIONS WITH R[…]” (priority 2021, published 2024).

How the values were obtained:
[1] = tested on: Influenza A Virus H1N1v strain A/Regensburg/D6/09 (H1N1v); format: cell-based

**Q.** With `CO[C@H]1C[C@@H]2CC[C@@H](C)[C@@](O)(O2)C(=O)C(=O)N2CCCC[C@H]2C(=O)O[C@H]([C@H](C)C[C@@H]2CC[C@@H](O)[C@H](OC)C2)CC(=O)[C@H](C)/C=C(\C)[C@@H](O)[C@@H](OC)C(=O)[C@H](C)C[C@H](C)/C=C/C=C/C=C/1C` [Rapamycin, reference compound] as the compound, how does the “Effect on VeroE6 cell viability compared to mock control” value (VeroE6 cells) read?
**A.** slightly decreased the viability of cells

**Q.** What does the source list for Griffithsin [unencapsulated GRFT]?
**A.** Dilution at which PFU reduction reached the detection limit [1]: did not reach the detection limit at 1:2 dilution; Total GRFT concentration at which PFU reduction reached the detection limit [1]: > 1.325 mg/mL; PFU reduction in virus infected cells ([1]; A549 cells, different dilutions/concentrations, n=3 per reading point): concentration dependent PFU reduction; Toxic effect on VeroE6 cell viability compared to mock control (VeroE6 cells): no specific toxic effect
